Laboratory results reported in PMC6459958, “NEP-TC a rRNA Methyltransferase Involved on Somatic Embryogenesis of Tamarillo (Solanum betaceum Cav.)” (Frontiers in Plant Science, 2019).

Target: NEP-TC (Solanum betaceum, UniProt I1W0V3)
Experiment: coupled colorimetric SAM methyltransferase assay (SAH production, […] nm)
Type: biochemical
Details: methyl donor; co-substrate rRNA or total RNA from non-embryogenic calli

NEP-TC, sequence (I1W0V3 1-221): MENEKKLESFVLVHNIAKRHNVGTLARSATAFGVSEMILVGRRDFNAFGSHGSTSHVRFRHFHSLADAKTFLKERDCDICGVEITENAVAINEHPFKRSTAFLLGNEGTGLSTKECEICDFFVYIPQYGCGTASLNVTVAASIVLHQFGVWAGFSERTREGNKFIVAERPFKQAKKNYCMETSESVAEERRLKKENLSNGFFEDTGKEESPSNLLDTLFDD

## C[S+](CC[C@H](N)C(=O)O)C[C@H]1O[C@@H](n2cnc3c(N)ncnc32)[C@H](O)[C@@H]1O (stereo partly shown) [SAM]
  coupled colorimetric SAM methyltransferase assay (SAH production, 510 nm): production of SAH in SAM-dependent methylation reactions
